This test concerns the target T1, wild-type LRRK2 (Homo sapiens, UniProt Q5S007).
T1 construct: DNA tag for qPCR detection (not a peptide; the protein part that carries it is not described); made in house; host or cells: HEK 293 cells (the same paragraph also describes T7 phage grown in E. coli BL21)
Nature of the test: Inhibitory activity against LRRK2: competition binding to ligand-affinity beads, DNA-tagged kinase quantitated by qPCR. The settings on record: % of ctrl; for remaining binding at 0.01 µM: 10 nM compound, read-out: LRRK2(WT) Remaining kinase activity(%) at 10 nM; for remaining binding at 0.05 µM: 50 nM compound, read-out: LRRK2(WT) Remaining kinase activity(%) at 50 nM. The procedure: Representative compounds synthesized in Example 1 were assayed for inhibitory activity against wild-type LRRK2 and mutant LRRK2 (G2019S), and the results are summarized in Tables 2 and 3. In brief, a T7 phase strain carrying the wild-type kinase consisting of amino acid residues from H970 to E2527 of human-derived LRRK2 (Accession no. NP_940980.3) or a T7 phase strain carrying the G2019S mutation kinase was infected into E. coli strain BL21 which was then grown until log phase. After infection with T7 phases (multiplicity of infection=0.4), the cells were cultured at 32° C. for 90-150 minutes while shaking. Then, E. coli lysates were centrifuged (6,000×g) and the supernatant was filtered through a 0.2-μm filter. The kinases were produced in HEK 293 cells. In this regard, DNA was tagged to obtain DNA-tagged kinases for qPCR detection. For use in analyzing the kinases, affinity resins were prepared by treating streptavidin-coated magnetic beads with biotinylated small molecule ligands at room temperature for 30 minutes. Then, the liganded beads were blocked with an excess of biotin and washed with a blocking buffer (SeaBlock (Pierce), 1% BSA, 0.05% Tween 20, 1 mM DTT) to remove unbound ligands and thus to reduce the binding of non-specific phages. […] After one hour of incubation, the affinity beads were washed with a wash buffer (1×PBS, 0.05% Tween 20), resuspended in an elution buffer (1×PBS, 0.05% Tween 20, 0.5 μM non-biotinylated affinity ligand), and incubated at room temperature for 30 minutes while shaking. Afterwards, concentrations of wild-type LRRK2 and mutant LRRK2 (G2019S) in the eluted samples were quantitated by qPCR. Activity values are expressed as percentages relative to the control (% of ctrl). The compounds used in the activity assay were prepared into 40× stocks in 100% DMSO. The stocks were directly diluted during analysis procedures.
Table 2 includes inhibitory activities of the representative compounds of the present disclosure at 100 nM against wild-type LRRK2 and mutant LRRK2 (G2019S) while Table 3 includes inhibitory activities of the representative compounds at 10 nM and 50 nM against wild-type LRRK2. (+++ less than 10%; ++ less than 30%; + less than 50%; −50% or higher)
(In general: In qPCR the cycle at which signal appears reflects the starting amount.)

T1 sequence (Q5S007 970-2527): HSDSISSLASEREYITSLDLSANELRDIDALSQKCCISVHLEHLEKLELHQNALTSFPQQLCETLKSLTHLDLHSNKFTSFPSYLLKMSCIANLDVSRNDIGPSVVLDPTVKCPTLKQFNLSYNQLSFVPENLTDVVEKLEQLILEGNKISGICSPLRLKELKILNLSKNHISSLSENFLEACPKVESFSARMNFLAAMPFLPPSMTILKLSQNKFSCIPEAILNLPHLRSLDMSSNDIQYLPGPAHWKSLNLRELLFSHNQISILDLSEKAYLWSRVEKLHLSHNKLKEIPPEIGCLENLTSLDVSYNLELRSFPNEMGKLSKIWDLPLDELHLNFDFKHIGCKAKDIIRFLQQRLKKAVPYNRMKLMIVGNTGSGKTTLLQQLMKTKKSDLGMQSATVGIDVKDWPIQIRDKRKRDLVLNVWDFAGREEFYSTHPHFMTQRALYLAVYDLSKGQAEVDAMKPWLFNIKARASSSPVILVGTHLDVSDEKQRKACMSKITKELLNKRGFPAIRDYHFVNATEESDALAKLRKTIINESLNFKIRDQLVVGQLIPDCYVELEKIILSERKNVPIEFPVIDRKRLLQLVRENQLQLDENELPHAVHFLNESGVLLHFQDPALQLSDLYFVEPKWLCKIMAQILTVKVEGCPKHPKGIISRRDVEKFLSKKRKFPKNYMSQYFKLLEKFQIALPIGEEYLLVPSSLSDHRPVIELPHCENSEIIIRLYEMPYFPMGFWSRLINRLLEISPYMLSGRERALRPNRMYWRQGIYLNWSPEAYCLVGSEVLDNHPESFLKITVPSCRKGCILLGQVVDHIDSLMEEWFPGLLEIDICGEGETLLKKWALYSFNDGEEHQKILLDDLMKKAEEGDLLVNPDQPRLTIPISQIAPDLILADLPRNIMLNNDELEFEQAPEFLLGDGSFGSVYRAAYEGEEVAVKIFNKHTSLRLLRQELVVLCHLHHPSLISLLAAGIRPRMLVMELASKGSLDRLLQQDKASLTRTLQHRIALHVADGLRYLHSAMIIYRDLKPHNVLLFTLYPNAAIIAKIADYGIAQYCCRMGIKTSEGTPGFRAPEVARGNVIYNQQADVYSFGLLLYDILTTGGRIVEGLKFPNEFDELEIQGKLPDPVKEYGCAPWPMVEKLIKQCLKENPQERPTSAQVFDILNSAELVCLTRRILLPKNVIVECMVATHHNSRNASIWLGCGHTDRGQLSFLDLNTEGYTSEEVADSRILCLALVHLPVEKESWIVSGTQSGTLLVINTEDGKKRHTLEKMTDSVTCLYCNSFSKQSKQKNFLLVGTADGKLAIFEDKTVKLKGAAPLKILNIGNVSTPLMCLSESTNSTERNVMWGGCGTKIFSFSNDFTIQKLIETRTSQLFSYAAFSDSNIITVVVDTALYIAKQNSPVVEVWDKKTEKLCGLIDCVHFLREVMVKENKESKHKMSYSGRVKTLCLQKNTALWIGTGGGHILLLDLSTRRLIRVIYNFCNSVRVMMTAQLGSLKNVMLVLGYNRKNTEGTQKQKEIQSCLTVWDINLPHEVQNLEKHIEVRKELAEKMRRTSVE

For `COc1cc(C(=O)NC2CC(C)(C)NC(C)(C)C2)ccc1Nc1ncc(Cl)c(-c2cnn(C(C)C)c2)n1` [Compound 166, 4-((5-chloro-4-(1-isopropyl-1H-pyrazol-4-yl)pyrimidin-2-yl)amino)-3-methoxy-N-(2,2,6,6-tetramethylpiperidin-4-yl)benzamide], the remaining binding at 0.01 µM was ≥ 50% and the remaining binding at 0.05 µM was < 30%.
The like results for `COc1cc(C(=S)N2CCOCC2)c(F)cc1Nc1ncc(Cl)c(-c2cnn(C(C)C)c2)n1` [Compound 106, (4-((5-chloro-4-(1-isopropyl-1H-pyrazol-4-yl)pyrimidin-2-yl)amino)-2-fluoro-5-methoxyphenyl)(morpholino) methanethione] were, in that order, ≥ 50% and < 30%.
On the same counts, the results for `COc1cc(C(=O)NC2CCC(N(C)C)CC2)ccc1Nc1ncc(Cl)c(-c2cnn(C(C)C)c2)n1` (centres unmarked) [Compound 93, 4-((5-chloro-4-(1-isopropyl-1H-pyrazol-4-yl)pyrimidin-2-yl)amino)-N-(4-(dimethylamino)cyclohexyl)-3-methoxybenzamide] are < 50% and < 10%.
On the same counts, the results for `COc1cc(C(=O)N2CCC3(CCOCC3)CC2)ccc1Nc1ncc(Cl)c(-c2cnn(C(C)C)c2)n1` [Compound 77, (4-((5-chloro-4-(1-isopropyl-1H-pyrazol-4-yl)pyrimidin-2-yl)amino)-3-methoxyphenyl)(3-oxa-9-azaspiro[5.5]undecan-9-yl)methanone] are < 50% and < 30%.
In the case of `CC(C)n1cc(-c2nc(Nc3ccc(C(=O)N4CCOCC4)cc3OC(F)F)ncc2Cl)cn1` [Compound 105, (4-((5-chloro-4-(1-isopropyl-1H-pyrazol-4-yl)pyrimidin-2-yl)amino)-3-(difluoromethoxy)phenyl)(morpholino)methanone], the remaining binding at 0.01 µM is < 50% and the remaining binding at 0.05 µM is < 30%.
On the same counts, the results for `COc1cc(C(=O)N2CCC(C(C)(C)O)CC2)ccc1Nc1ncc(Cl)c(-c2cnn(C(C)C)c2)n1` [Compound 70, (4-((5-chloro-4-(1-isopropyl-1H-pyrazol-4-yl)pyrimidin-2-yl)amino)-3-methoxyphenyl)(4-(2-hydroxypropan-2-yl)piperidin-1-yl)methanone] are < 50% and < 30%.
The like results for `COc1cc(C(=O)NCc2cccc(O)c2)ccc1Nc1ncc(Cl)c(-c2cnn(C(C)C)c2)n1` [Compound 152, 4-((5-chloro-4-(1-isopropyl-1H-pyrazol-4-yl)pyrimidin-2-yl)amino)-N-(3-hydroxybenzyl)-3-methoxybenzamide] were, in that order, ≥ 50% and < 30%.
The like results for `COc1cc(C(=O)Nc2ccc(N(C)C)cc2)ccc1Nc1ncc(Cl)c(-c2cnn(C(C)C)c2)n1` [Compound 127, 4-((5-chloro-4-(1-isopropyl-1H-pyrazol-4-yl)pyrimidin-2-yl)amino)-N-(4-(dimethylamino)phenyl)-3-methoxybenzamide] were, in that order, < 50% and < 30%.
For `COc1cc(C(=O)N2[C@@H]3CC[C@H]2COC3)ccc1Nc1ncc(Cl)c(-c2cnn(C(C)C)c2)n1` [Compound 95, ((1R,5S)-3-oxa-8-azabicyclo[3.2.1]octan-8-yl)(4-((5-chloro-4-(1-isopropyl-1H-pyrazol-4-yl)pyrimidin-2-yl)amino)-3-methoxyphenyl)methanone], the remaining binding at 0.01 µM is ≥ 50% and the remaining binding at 0.05 µM is < 30%.
The like results for `COc1cc(C(=O)N(C)C)ccc1Nc1ncc(Cl)c(-c2cnn(C(C)C)c2)n1` [Compound 101, 4-((5-chloro-4-(1-isopropyl-1H-pyrazol-4-yl)pyrimidin-2-yl)amino)-3-methoxy-N,N-dimethylbenzamide] were, in that order, ≥ 50% and < 50%.

The values are drawn from US20240254103A9, “NOVEL PYRIMIDINE DERIVATIVE, AND COMPOSITION FOR PREVENTING OR TREATING NEURODEGENERATIVE DISEASES AND CANCER, COMPRISING SAME” (WHAN IN PHARMACEUTICAL CO., LTD., priority 2020, published 2024).
